This is an account of results in patent US9884818B2, “Sulphamoylpyrrolamide derivatives and the use thereof as medicaments for the treatment of hepatitis B” (Janssen Sciences Ireland UC, priority 2013, dated 2018).

pEC50: −log10 of the molar value.

For data set [1], the system named is HBV. The data set is described as follows: Anti-HBV activity, HepG2.2.15 stable transfected cell line, HBV DNA from secreted virions by realtime PCR. The note with it: Hepatitis B virus, HepG2.2.15, 144 h, HepG2.2.15 cells, 6 days of treatment, HBV DNA from secreted virions; read-out: HepG2 2.15 EC50. In kind it is cell-based.
The subject of data set [2] is HBV. Briefly: Anti-HBV activity, HepG2.117 inducibly HBV producing cell line (Tet-off), intracellular HBV DNA by realtime PCR. In kind it is cell-based. The note with it: Hepatitis B virus, HepG2.117, 72 h, HepG2.117 cells, 3 days of treatment, intracellular HBV DNA; read-out: HepG2 117 EC50.
A short description of data set [3]: Cytotoxicity in HepG2 cells, Resazurin viability assay. The note with it: human, HepG2 cells, HepG2 4 days CC50 (μM), incubated for 4 days, Resazurin assay.

For the molecule `Cn1cc(S(=O)(=O)NC(C)(C)C)cc1C(=O)Nc1ccc(F)c(Cl)c1F` [Compound 194, 4-(tert-Butylsulfamoyl)-N-(3-chloro-2,4-difluorophenyl)-1-methyl-1H-pyrrole-2-carboxamide], the pEC50 (as a rule, the EC50 on a negative log10 scale, so that one unit is a factor of ten) was 7.05 with HBV [1] and 7.30 with HBV [2]. The CC50 (usually the concentration at which the toxic effect on the cells reaches its halfway point) at 4 days in data set [3] was more than 25 µM.
For `Cn1cc(S(=O)(=O)NC(C)(C)C)cc1C(=O)Nc1ccc(F)c(Cl)c1` [Compound 195, 4-(tert-Butylsulfamoyl)-N-(3-chloro-4-fluorophenyl)-1-methyl-1H-pyrrole-2-carboxamide], the pEC50 with HBV [1] and in the data set on HBV [2] was 7.40 each time. Further, the CC50 at 4 days in data set [3] is more than 25 µM.
As for `C[C@H](NS(=O)(=O)c1cc(C(=O)Nc2ccc(F)c(C#N)c2F)n(C)c1)C(F)(F)F` [Compound 196, N-(3-Cyano-2,4-difluorophenyl)-1-methyl-4-{[(1S)-2,2,2-trifluoro-1-methylethyl]sulfamoyl}-1H-pyrrole-2-carboxamide], the values for the pEC50 with HBV [1] and with HBV [2] were 7.00 and 7.10, respectively. The molecule also returned a CC50 at 4 days in data set [3] of more than 25 µM.
On to `C[C@H](NS(=O)(=O)c1cc(C(=O)Nc2cccc(C#N)c2)n(C)c1)C(F)(F)F` [Compound 197, N-(3-Cyanophenyl)-1-methyl-4-{[(1S)-2,2,2-trifluoro-1-methylethyl]-sulfamoyl}-1H-pyrrole-2-carboxamide], for which the pEC50 with HBV [1] is 6.92; in the data set with HBV [2], 7.05. This molecule also yielded a CC50 at 4 days in data set [3] of more than 25 µM.
For `C[C@H](NS(=O)(=O)c1cc(C(=O)Nc2cccc(C#N)c2F)n(C)c1)C(F)(F)F` [Compound 198, N-(3-Cyano-2-fluorophenyl)-1-methyl-4-{[(1S)-2,2,2-trifluoro-1-methylethyl]sulfamoyl}-1H-pyrrole-2-carboxamide] the same measures were 6.82, 7.10 and more than 25 µM.
For `C[C@@H](NS(=O)(=O)c1cn(C)c(C(=O)Nc2ccc(F)c(C#N)c2)c1Cl)C(F)(F)F` [Compound 199, 3-Chloro-N-(3-cyano-4-fluorophenyl)-1-methyl-4-{[(1R)-2,2,2-trifluoro-1-methylethyl]sulfamoyl}-1H-pyrrole-2-carboxamide] the same measures were 8.22, 8.10 and more than 25 µM.
For `Cc1c(S(=O)(=O)NC2(C)COC2)cn(C)c1C(=O)Nc1cc(F)c(F)c(Cl)c1` [Compound 201, N-(3-Chloro-4,5-difluorophenyl)-1,3-dimethyl-4-[(3-methyloxetan-3-yl)sulfamoyl]-1H-pyrrole-2-carboxamide] the same measures were 7.15, 7.70 and more than 25 µM.
In the case of `Cc1c(S(=O)(=O)N[C@H](C)C(F)(F)F)cn(C)c1C(=O)Nc1cc(F)c(F)c(Cl)c1` [Compound 202, N-(3-Chloro-4,5-difluorophenyl)-1,3-dimethyl-4-{[(1R)-2,2,2-trifluoro-1-methylethyl]sulfamoyl}-1H-pyrrole-2-carboxamide], the pEC50 in the data set with HBV [1] is 7.52; in the data set with HBV [2], 7.70. Moreover, the CC50 at 4 days in data set [3] is more than 25 µM.
The matching figures for `C[C@@H](NS(=O)(=O)c1cc(C(=O)Nc2cccc(F)c2F)n(C)c1)C(F)(F)F` [Compound 203, N-(2,3-Difluorophenyl)-1-methyl-4-{[(1R)-2,2,2-trifluoro-1-methyl-ethyl]sulfamoyl}-1H-pyrrole-2-carboxamide]: 6.42, 6.33 and more than 25 µM.
The matching figures for `C[C@@H](NS(=O)(=O)c1cc(C(=O)Nc2c(F)ccc(Cl)c2F)n(C)c1)C(F)(F)F` [Compound 204, N-(3-Chloro-2,6-difluorophenyl)-1-methyl-4-{[(1R)-2,2,2-trifluoro-1-methylethyl]sulfamoyl}-1H-pyrrole-2-carboxamide]: 6.19, 6.21 and more than 25 µM.
For `C[C@@H](NS(=O)(=O)c1cc(C(=O)Nc2cc(F)c(F)c(Br)c2)n(C)c1)C(F)(F)F` [Compound 205, N-(3-Bromo-4,5-difluorophenyl)-1-methyl-4-{[(1R)-2,2,2-trifluoro-1-methylethyl]sulfamoyl}-1H-pyrrole-2-carboxamide] the same measures were 7.10, 7.52 and 13 µM.
Turning to `C[C@@H](NS(=O)(=O)c1cc(C(=O)Nc2cccc(Br)c2F)n(C)c1)C(F)(F)F` [Compound 206, N-(3-Bromo-2-fluorophenyl)-1-methyl-4-{[(1R)-2,2,2-trifluoro-1-methylethyl]sulfamoyl}-1H-pyrrole-2-carboxamide], the pEC50 in the data set with HBV [1] was 7.52; in the data set with HBV [2], 7.05. For the same molecule, the CC50 at 4 days in data set [3] was more than 25 µM.
The matching figures for `Cn1cc(S(=O)(=O)NC(C)(C)CF)cc1C(=O)Nc1cc(F)c(F)c(Cl)c1` [Compound 207, N-(3-chloro-4,5-difluoro-phenyl)-4-[(2-fluoro-1,1-dimethyl-ethyl)sulfamoyl]-1-methyl-pyrrole-2-carboxamide]: 7.30, 6.85 and more than 25 µM.
For `Cc1c(S(=O)(=O)NC(C)C)cn(C)c1C(=O)Nc1ccc(F)c(Cl)c1F` [Compound 208, N-(3-Chloro-2,4-difluorophenyl)-1,3-dimethyl-4-[(1-methylethyl)sulfamoyl]-1H-pyrrole-2-carboxamide] the same measures were 6.70, 6.18 and more than 25 µM.
The matching figures for `Cc1c(S(=O)(=O)N[C@@H](C)C(F)(F)F)cn(C)c1C(=O)Nc1ccc(F)c(Cl)c1F` [Compound 209, N-(3-Chloro-2,4-difluorophenyl)-1,3-dimethyl-4-{[(1S)-2,2,2-trifluoro-1-methylethyl]sulfamoyl}-1H-pyrrole-2-carboxamide]: 7.05, 7.05 and more than 25 µM.
For the molecule `Cc1c(S(=O)(=O)N[C@H](C)C(F)(F)F)cn(C)c1C(=O)Nc1ccc(F)c(Cl)c1F` [Compound 210, N-(3-Chloro-2,4-difluorophenyl)-1,3-dimethyl-4-{[(1R)-2,2,2-trifluoro-1-methylethyl]sulfamoyl}-1H-pyrrole-2-carboxamide], the pEC50 in the data set with HBV [1] and with HBV [2] was 7.30 each time. Also, in data set [3], the CC50 at 4 days is more than 25 µM.
`Cn1cc(S(=O)(=O)NC(C)(C)C)c(F)c1C(=O)Nc1ccc(F)c(F)c1` [Compound 211, 4-(tert-Butylsulfamoyl)-N-(3,4-difluorophenyl)-3-fluoro-1-methyl-1H-pyrrole-2-carboxamide]: the pEC50 with HBV [1] and in the data set on HBV [2] was 7.40 in each case. For the same molecule, the CC50 at 4 days in data set [3] is more than 25 µM.
As for `Cn1cc(S(=O)(=O)NC(C)(C)C)c(F)c1C(=O)Nc1ccc(F)c(Cl)c1F` [Compound 212, 4-(tert-Butylsulfamoyl)-N-(3-chloro-2,4-difluorophenyl)-3-fluoro-1-methyl-1H-pyrrole-2-carboxamide], the values for the pEC50 with HBV [1] and in the data set on HBV [2] were 7.05 and 7.40, respectively. Also, the CC50 at 4 days in data set [3] was more than 25 µM.
For `Cn1cc(S(=O)(=O)NC(C)(C)C)c(F)c1C(=O)Nc1ccc(F)c(F)c1F` [Compound 213, 4-(tert-Butylsulfamoyl)-3-fluoro-1-methyl-N-(2,3,4-trifluorophenyl)-1H-pyrrole-2-carboxamide] the same measures were 6.68, 6.51 and more than 25 µM.
The matching figures for `Cn1cc(S(=O)(=O)NC(C)(C)C)c(F)c1C(=O)Nc1ccc(F)c(C#N)c1` [Compound 214, 4-(tert-Butylsulfamoyl)-N-(3-cyano-4-fluorophenyl)-3-fluoro-1-methyl-1H-pyrrole-2-carboxamide]: 7.22, 7.70 and more than 25 µM.
The matching figures for `Cn1cc(S(=O)(=O)NC2(C)COC2)c(F)c1C(=O)Nc1ccc(F)c(Cl)c1F` [Compound 215, N-(3-Chloro-2,4-difluorophenyl)-3-fluoro-1-methyl-4-[(3-methyloxetan-3-yl)sulfamoyl]-1H-pyrrole-2-carboxamide]: 7.70, 8.00 and more than 25 µM.
As to `CC(C)NS(=O)(=O)c1cn(C)c(C(=O)Nc2ccc(F)c(C#N)c2)c1C#N` [Compound 216, 3-Cyano-N-(3-cyano-4-fluorophenyl)-1-methyl-4-[(1-methylethyl)sulfamoyl]-1H-pyrrole-2-carboxamide], the results for the pEC50 with HBV [1] and with HBV [2] were 6.74 and 6.34, respectively. Moreover, the CC50 at 4 days in data set [3] was more than 25 µM.
On to `C[C@@H](NS(=O)(=O)c1cn(C)c(C(=O)Nc2ccc(F)c(F)c2)c1Cl)C(F)(F)F` [Compound 217, 3-Chloro-N-(3,4-difluorophenyl)-1-methyl-4-{[(1R)-2,2,2-trifluoro-1-methylethyl]sulfamoyl}-1H-pyrrole-2-carboxamide], for which the pEC50 with HBV [1] and in the data set on HBV [2] was 8.30 in each case. In addition, the CC50 at 4 days in data set [3] is more than 25 µM.
Consider `C[C@@H](NS(=O)(=O)c1cn(C)c(C(=O)Nc2ccc(F)c(Cl)c2F)c1Cl)C(F)(F)F` [Compound 218, 3-Chloro-N-(3-chloro-2,4-difluorophenyl)-1-methyl-4-{[(1R)-2,2,2-trifluoro-1-methylethyl]sulfamoyl}-1H-pyrrole-2-carboxamide], for which the results for the pEC50 in the data set on HBV [1] and in the data set with HBV [2] were 8.05 and 8.15, respectively. The molecule also yielded a CC50 at 4 days in data set [3] of more than 25 µM.
For `Cn1cc(S(=O)(=O)NC2(C(F)(F)F)CCC2)c(Cl)c1C(=O)Nc1ccc(F)c(Cl)c1F` [Compound 219, 3-Chloro-N-(3-chloro-2,4-difluorophenyl)-1-methyl-4-{[1-(trifluoro-methyl)cyclobutyl]sulfamoyl}-1H-pyrrole-2-carboxamide] the same measures were 8.00, 8.05 and more than 25 µM.
